Assay results from patent US7989417B2, “Linkers for radiopharmaceutical compounds” (Bracco Imaging S.p.A., priority 2003, dated 2011).

Tests used:
PC3 tumor = assay: Radiotherapy studies in PC3 tumor-bearing nude mouse model; assay type: in vivo; conditions: Lu-177 labelled; for survival, short term efficacy study: 30 mCi/kg i.v. or s.c., up to 30 days, versus no treatment and versus same dose of L134
Procedure: A. Short Term Efficacy Studies: • Radiotherapy studies were performed using the PC3 tumor-bearing nude mouse model. […] (n=12 for each treatment group and n=36 for the untreated control group). For the first study, mice were administered 100 μL of ^177Lu-labelled compound of the invention at 30 mCi/kg, i.v, or s.c. under sterile conditions. The subjects were housed in a barrier environment for up to 30 days. Body weight and tumor size (by caliper measurement) were collected on each subject 3 times per week for the duration of the study. Criteria for early termination included: death; loss of total body weight (TBW) equal to or greater than 20%; tumor size equal to or greater than 2 cm^3.

[1] = Tracer dose biodistribution in xenografted PC3 tumor-bearing mice; conditions: Lu-177 labelled; for uptake in the tumor (in words): 1 and 24 h; for uptake in the mouse pancreas (in words): compared with L134, pancreas known to have GRP receptors
Procedure: In all studies, mice were administered 100 μL of ^177Lu-labelled test compound at 200 μCi/kg, i.v., with a residence time of 1 and 24 h per group (n=3-4). Tissues were analyzed in an LKB 1282 CompuGamma counter with appropriate standards.

rat epididymal fat cells [2] = assay: Fat cell assay: activation of glucose oxidation; assay type: cell-based; conditions: buffers containing serum albumin; compared with native insulin
human serum albumin = human serum albumin (Homo sapiens, UniProt P02768); assay: Binding to human serum albumin by ultrafiltration; conditions: 1 nM insulin solution in 0.6 mM human serum albumin, spiked with 125I-labeled insulin
Procedure: Binding to human serum albumin is determined by ultrafiltration according to Whitlam J. B. & Brown K. F.: J. Pharm. Sci. 70, 146-150, 1981, applying 1 nM bovine insulin solution in 0.6 mM human serum albumin, spiked with ^125I-labeled insulin. 95% of the insulin is bound. It is evident that such binding to albumin will reduce the renal elimination of the modified insulin (Compounds B and D) relative to that of native insulin.

rat epididymal fat cells [3] = conditions: bound to a 1:1 conjugate of avidin and ferritin; compared with insulin; cited from earlier work

Molecule	survival, short term efficacy study (PC3 tumor)	uptake in the tumor (in words) ([1]; compared with control L134)	uptake in the mouse pancreas (in words) [1]	activity in fat cell assay (activation of glucose oxidation) (rat epididymal fat cells [2])	further results
CSCC[C@H](NC(=O)[C@H](CC(C)C)NC(=O)[C@H](Cc1c[nH]cn1)NC(=O)CNC(=O)[C@@H](NC(=O)[C@H](C)NC(=O)[C@H](Cc1c[nH]c2ccccc12)NC(=O)[C@H](CCC(N)=O)NC(=O)CC[C@@H](C)[C@H]1CC[C@H]2[C@@H]3CC[C@@H]4C[C@@H](NC(=O)CNC(=O)CN5CCN(CC(=O)O)CCN(CC(=O)O)CCN(CC(=O)O)CC5)CC[C@]4(C)[C@H]3C[C@H](O)[C@]12C)C(C)C)C(N)=O [Compound L63, N-[(3β,5β,12α)-3-[[[[[4,7,10-Tris(carboxymethyl)-1,4,7,10-tetraazacyclododec-1-yl]acetyl]amino]acetyl]amino]-12-hydroxy-24-oxocholan-24-yl]-L-glutaminyl-L-tryptophyl-L-alanyl-L-valyl-glycyl-L-histidyl-L-leucyl-L-methioninamide]	increased survival	high tumour uptake	much higher	–	distribution of radioactivity in blood, liver and kidneys (in words) ([1]; compared with control L134): increased blood and liver values at early times
CSCC[C@H](NC(=O)[C@H](CC(C)C)NC(=O)[C@H](Cc1c[nH]cn1)NC(=O)CNC(=O)[C@@H](NC(=O)[C@H](C)NC(=O)[C@H](Cc1c[nH]c2ccccc12)NC(=O)[C@H](CCC(N)=O)NC(=O)CC[C@@H](C)[C@H]1CC[C@H]2[C@@H]3[C@H](O)C[C@@H]4C[C@@H](NC(=O)CNC(=O)CN5CCN(CC(=O)O)CCN(CC(=O)O)CCN(CC(=O)O)CC5)CC[C@]4(C)[C@H]3C[C@H](O)[C@]12C)C(C)C)C(N)=O [Compound L64, N-[(3β,5β,7α,12α)-3-[[[[[4,7,10-Tris(carboxymethyl)-1,4,7,10-tetraazacyclododec-1-yl]acetyl]amino]acetyl]amino]-7,12-dihydroxy-24-oxocholan-24-yl]-L-glutaminyl-L-tryptophyl-L-alanyl-L-valyl-glycyl-L-histidyl-L-leucyl-L-methioninamide]	increased survival	much higher	much higher	–	survival, repeat study (PC3 tumor; same dose, n=46, followed longer, relative to controls (n=36), p<0.0001): significantly increased survival
Bovine 1-[[(3β,5β,12α)-23-[(1,1-dimethyl)ethoxycarbonyl]-12-hydroxy-24-norcholan-3-yl]amino]carbonyl-3,5-bis[[4-(insulin-N^εB29-yl)-1,4-dioxobutyl]amino]benzene [Compound D]	–	–	–	identical activity to native insulin	–
Bovine N^eB29-[4-[[(3β,5β,12α)-23-carboxy-12-hydroxy-24-norcholan-3-yl]amino]-4-oxobutanoyl]-insulin [Compound B]	–	–	–	identical activity to native insulin	bound to human serum albumin (human serum albumin): 95%
N^εB29-biotinylinsulin	–	–	–	–	dose-response curve for the activation of glucose oxidation (rat epididymal fat cells [3]): same dose-response curve as insulin
